Measured values taken from patent US6582351B1, “Imidazopyridinone derivatives and their use as phosphodiesterase inhibitors” (Fujisawa Pharmaceutical Co., Ltd., priority 1999, dated 2003).

Test system: not given
Experiment: not given
Conditions: not given

SMILES | melting point [°C]
COc1ccc(Cn2c(=O)n([C@H]3CC[C@H](NC(=O)OC(C)(C)C)CC3)c3ccc(C(F)(F)F)cc32)cc1Cl [Example 2(99), 1-[trans-4-(N-tert-Butoxycarbonylamino)cyclohexyl]-3-(3-chloro-4-methoxybenzyl)-5-trifluoromethyl-2,3-dihydro-1H-benzimidazol-2-one] | 185.5 to 187
O=c1n(Cc2ccc(Cl)c(Cl)c2)c2cc(C(F)(F)F)cnc2n1[C@H]1CC[C@H](O)CC1 [Example 19(3), 1-(3,4-Dichlorobenzyl)-3-(trans-4-hydroxycyclohexyl)-6-trifluoromethyl-2,3-dihydro-1H-imidazo[4,5-b]pyridin-2-one] | 170 to 171.5
COc1ccc(Cn2c(=O)n([C@H]3CC[C@H](OC(C)=O)CC3)c3ncc(C(F)(F)F)cc32)cc1OC [Example 2(12), 3-(trans-4-Acetoxycyclohexyl)-1-(3,4-dimethoxybenzyl)-6-trifluoromethyl-2,3-dihydro-1H-imidazo[4,5-b]pyridin-2-one] | 130 to 133
COc1ccc(Cn2c(=O)n([C@H]3CC[C@H](O)CC3)c3ccc([N+](=O)[O-])cc32)cc1Cl [Example 2(16), 3-(3-Chloro-4-methoxybenzyl)-1-(trans-4-hydroxycyclohexyl)-5-nitro-2,3-dihydro-1H-benzimidazol-2-one] | 142 to 142.5
COC(=O)c1ccc2c(c1)n(Cc1ccc(OC)c(OC)c1)c(=O)n2[C@H]1CC[C@H](O)CC1 [Example 2(10), 3-(3,4-Dimethoxybenzyl)-1-(trans-4-hydroxycyclohexyl)-5-methoxycarbonyl-2,3-dihydro-1H-benzimidazol-2-one] | 148 to 149.5
COc1ccc(Cn2c(=O)n(C(C)C)c3ccc(C(F)(F)F)cc32)cc1Cl [Example 2(35), 3-(3-Chloro-4-methoxybenzyl)-1-isopropyl-5-trifluoromethyl-2,3-dihydro-1H-benzimidazol-2-one] | 153.5 to 155
COc1ccc(Cn2c(=O)n([C@H]3CC[C@H](O)CC3)c3ccc(C)cc32)cc1OC [Example 19(4), 3-(3,4-Dimethoxybenzyl)-1-(trans-4-hydroxycyclohexyl)-5-methyl-2,3-dihydro-1H-benzimidazol-2-one] | 174 to 175
COc1ccc(Cn2c(=O)n([C@H]3CCN(C(=O)OC(C)(C)C)C3)c3ccc(C(F)(F)F)cc32)cc1Cl [Example 2(19), 1-((S)-1-tert-Butoxycarbonylpyrrolidin-3-yl)-3-(3-chloro-4-methoxybenzyl)-5-trifluoromethyl-2,3-dihydro-1H-benzimidazol-2-one] | 157 to 157.5
COc1ccc(Cn2c(=O)n(C3CCCC3)c3ncc(C(F)(F)F)cc32)cc1OC [Example 2(13), 3-Cyclopentyl-1-(3,4-dimethoxybenzyl)-6-trifluoromethyl-2,3-dihydro-1H-imidazo[4,5-b]pyridin-2-one] | 115 to 116
COc1ccc(Cn2c(=O)n(CCO)c3ccc(C(F)(F)F)cc32)cc1Cl [Example 4(7), 3-(3-Chloro-4-methoxybenzyl)-1-(2-hydroxyethyl)-5-trifluoromethyl-2,3-dihydro-1H-benzimidazol-2-one] | 106 to 107
COc1ccc(Cn2c(=O)n([C@H]3CC[C@@H](O)CC3)c3ncc(C#N)cc32)cc1Cl [Example 24, 1-(3-chloro-4-methoxybenzyl)-6-cyano-3-(cis-4-hydroxycyclohexyl)-2,3-dihydro-1H-imidazo[4,5-b]pyridin-2-one] | 197 to 198
COc1ccc(Cn2c(=O)n([C@H]3CC[C@H](O)CC3)c3ncc(C(=O)NCc4cccnc4)cc32)cc1Cl [Example 21(2), 1-(3-Chloro-4-methoxybenzyl)-6-(3-picolylcarbamoyl)-3-(trans-4-hydroxycyclohexyl)-2,3-dihydro-1H-imidazo[4,5-b]pyridin-2-one] | 134 to 135
COc1ccc(Cn2c(=O)n([C@H]3CC[C@H](O)CC3)c3ccc(C#N)cc32)cc1OC [Example 2(5), 5-Cyano-3-(3,4-dimethoxybenzyl)-1-(trans-4-hydroxycyclohexyl)-2,3-dihydro-1H-benzimidazol-2-one] | 209 to 210
COc1ccc(Cn2c(=O)n([C@H]3CCN(C(=O)OC(C)(C)C)C3)c3ccc(C(F)(F)F)cc32)cc1OC [Example 2(18), 1-((S)-1-tert-Butoxycarbonylpyrrolidin-3-yl)-3-(3,4-dimethoxybenzyl)-5-trifluoromethyl-2,3-dihydro-1H-benzimidazol-2-one] | 122 to 122.5
COc1ccc(Cn2c(=O)n([C@H]3CC[C@H](O)CC3)c3ccc(C(=O)O)cc32)cc1Cl [Example 19(5), 5-Carboxy-3-(3-chloro-4-methoxybenzyl)-1-(trans-4-hydroxycyclohexyl)-2,3-dihydro-1H-benzimidazol-2-one] | 275 to 276
COc1ccc(Cn2c(=O)n(-c3ccc4[nH]ccc4c3)c3ncc(C#N)cc32)cc1Cl [Example 2(105), 1-(3-Chloro-4-methoxybenzyl)-3-(1H-indol-5-yl)-6-cyano-2,3-dihydro-1H-imidazo[4,5-b]pyridin-2-one] | 281 to 282
COc1ccc(Cn2c(=O)n([C@H]3CC[C@H](O)CC3)c3ncc(C#N)cc32)cc1C#N [Example 2(102), 6-Cyano-1-(3-cyano-4-methoxybenzyl)-3-(trans-4-hydroxycyclohexyl)-2,3-dihydro-1H-imidazo[4,5-b]pyridin-2-one] | 133 to 134
COc1ccc(Cn2c(=O)n(C3CCCC3)c3ncc(C(F)(F)F)cc32)cc1Cl [Example 2(17), 1-(3-Chloro-4-methoxybenzyl)-3-cyclopentyl-6-trifluoromethyl-2,3-dihydro-1H-imidazo[4,5-b]pyridin-2-one] | 156 to 157
COc1ccc2c(c1)n(Cc1ccc(OC)c(OC)c1)c(=O)n2[C@H]1CC[C@H](O)CC1 [Example 2(11), 3-(3,4-Dimethoxybenzyl)-1-(trans-4-hydroxycyclohexyl)-5-methoxy-2,3-dihydro-1H-benzimidazol-2-one] | 176 to 177
CCOc1ccc(Cn2c(=O)n([C@H]3CC[C@H](O)CC3)c3ccc(C(F)(F)F)cc32)cc1Cl [Example 2(29), 3-(3-Chloro-4-ethoxybenzyl)-1-(trans-4-hydroxycyclohexyl)-5-trifluoromethyl-2,3-dihydro-1H-benzimidazol-2-one] | 147.5 to 149
COc1ccc(Cn2c(=O)n([C@H]3CC[C@H](O)CC3)c3ccc(Cl)cc32)cc1OC [Example 2(9), 5-Chloro-3-(3,4-dimethoxybenzyl)-1-(trans-4-hydroxycyclohexyl)-2,3-dihydro-1H-benzimidazol-2-one] | 166 to 167
COc1ccc(Cn2c(=O)n(-c3ccc4[nH]cnc4c3)c3ccc(C(F)(F)F)cc32)cc1OC [Example 2(20), 1-(1H-Benzimidazol-5-yl)-3-(3,4-dimethoxybenzyl)-5-trifluoromethyl-2,3-dihydro-1H-benzimidazol-2-one] | 174 to 175
COc1ccc(Cn2c(=O)n([C@H]3CC[C@H](N)CC3)c3ccc(C(F)(F)F)cc32)cc1Cl [Example 8(4), 1-(trans-4-Aminocyclohexyl)-3-(3-chloro-4-methoxybenzyl)-5-trifluoromethyl-2,3-dihydro-1H-benzimidazol-2-one] | 167 to 168.5
COc1ccc(Cn2c(=O)n([C@H]3CC[C@H](O)CC3)c3ccc([N+](=O)[O-])cc32)cc1C#N [Example 2(97), 3-(3-Cyano-4-methoxybenzyl)-1-(trans-4-hydroxycyclohexyl)-5-nitro-2,3-dihydro-1H-benzimidazol-2-one] | 122 to 124

Target: T1, human platelet PDE-V (Homo sapiens, UniProt O76074)
T1 construct: Human platelet cGMP-PDE was separated from other isozymes in human platelets; from tissue; host or cells: human platelets
Experiment: cGMP-Phosphodiesterase (PDE) assay; enzymatic inhibitory test against human platelet PDE-V
Type: biochemical
Conditions: 0.1 μM [3H]-cGMP substrate, 30° C., 10 minutes
Procedure: [II] Test Method: cGMP-Phosphodiesterase (PDE) Assay
Human platelet cGMP-PDE was separated from other isozymes in human platelets by a modification of the method of Thompson et. al. (see Cyclic Nucleotide Phosphodiesterase (PDE), in Methods of Enzymatic analysis, Vol 4, p127-234, 1984). Specific inhibitory activity of PDE-V was measured by following procedure. In enzyme inhibition assays, the test compounds were dissolved in DMSO and then diluted with assay buffer (50 mM Tris-HCl, 0.077 mg/ml dithiothreitol and 10 mg/ml snake venom, 1 mM EGTA, pH 8.0), at final concentrations ranging from 10^−10 to 10^−6 M. Assays were performed at 0.1 μM substrate ([^3H]-cGMP) concentration, at 30° C. for 10 minutes using enzyme dilutions which gave 10-20% hydrolysis of substrate. Each assay was initiated by addition of substrate and terminated by addition of anion exchange resin (Dowex® 1-X8, […]) followed by centrifugation for 10 minutes (3000 rpm, at 4° C.). Radioactivity of supernatant ([^3H]-GMP) was assayed by liquid scintillation counting.

SMILES | IC50 [nM]
COc1ccc(Cn2c(=O)n([C@H]3CCN(C(=O)OC(C)(C)C)C3)c3ccc(C#N)cc32)cc1Cl [Example 2(60), 1-[(S)-1-tert-Butoxycarbonylpyrrolidin-3-yl]-3-(3-chloro-4-methoxybenzyl)-5-cyano-2,3-dihydro-1H-benzimidazol-2-one] | < 10
COc1ccc(Cn2c(=O)n([C@H]3CC[C@H](O)CC3)c3ccc([N+](=O)[O-])cc32)cc1[N+](=O)[O-] [Example 2(109), 1-(trans-4-Hydroxycyclohexyl)-3-(4-methoxy-3-nitrobenzyl)-5-nitro-1,3-dihydro-2H-benzimidazol-2-one] | < 10
COc1ccc(Cn2c(=O)n([C@H]3CC[C@H](O)CC3)c3ncc(C#N)cc32)cc1Cl [Example 33, 1-(3-chloro-4-methoxybenzyl)-6-cyano-3-(trans-4-hydroxycyclohexyl)-2,3-dihydro-1H-imidazo[4,5-b]pyridin-2-one] | < 10
COc1ccc(Cn2c(=O)n(C3CCN(C)CC3)c3ccc(C#N)cc32)cc1Cl [Example 28, 3-(3-chloro-4-methoxybenzyl)-5-cyano-1-(1-methylpiperidin-4-yl)-2,3-dihydro-1H-benzimidazole-2-one] | < 10
COc1ccc(Cn2c(=O)n(C3CCC4OC(C)(C)OC4C3)c3ccc(C#N)cc32)cc1Cl (centres unmarked) [Example 2(95), 3-(3-Chloro-4-methoxybenzyl)-5-cyano-1-(t-3,t-4-isopropylidenedioxy-r-1-cyclohexyl)-2,3-dihydro-1H-benzimidazol-2-one] | < 10
